In US20200282008A1, “COMPOSITIONS AND METHODS FOR LONG TERM RELEASE OF GONADOTROPIN-RELEASING HORMONE (GnRH) ANTAGONISTS” (VERU INC., priority 2017, published 2020):
Non-standard residues stand in square brackets, D forms with d. Residues, ends and D or L forms follow the SMILES beside them. dPhe(4-Cl) = N[C@H](Cc1ccc(Cl)cc1)C(=O)O; d2Nal = N[C@H](Cc1ccc2ccccc2c1)C(=O)O; dCit = NC(=O)NCCC[C@@H](N)C(=O)O; d3Pal = N[C@H](Cc1cccnc1)C(=O)O

Tested on: serum testosterone
Assay: Second rat study: serum testosterone after cetrorelix PLGA formulations
Assay type: in vivo, rats
Experimental: In a second rat study serum testosterone and cetrorelix levels were measured over 12 weeks. […] The formulations found within Table 13 were injected in rats and then the testosterone was measured at 0, 1, 2, 8 and 24 hours and then daily until the end of the first week and then biweekly until week 4 and then weekly thereafter.
FIG. 21 compares the data from the 2nd rat and 1st dog study results for testosterone levels.

## CC(=O)N[C@H](Cc1ccc2ccccc2c1)C(=O)N[C@H](Cc1ccc(Cl)cc1)C(=O)N[C@H](Cc1cccnc1)C(=O)N[C@@H](CO)C(=O)N[C@@H](Cc1ccc(O)cc1)C(=O)N[C@H](CCCNC(N)=O)C(=O)N[C@@H](CC(C)C)C(=O)N[C@@H](CCCNC(=N)N)C(=O)N1CCC[C@H]1C(=O)N[C@H](C)C(N)=O [cetrorelix] (Ac-[d2Nal][dPhe(4-Cl)][d3Pal]SY[dCit]LRP[dA]-NH2)
  cetrorelix level required to inhibit testosterone production: 2 ng/mL
